According to patent publication US5324502A, “Radiopharmaceuticals for imaging the heart” (priority 1992, dated 1994):
Read-outs that look alike come from different tables or passages of the source.

Columns and labels:
[1] = Octanol/water partition coefficient of radiolabeled gallium complexes; assay type: physicochemical
Description: Octanol/water partition coefficients were measured by vortex mixing 1 mL of 1-octanol and 1 mL of isotonic Tris buffer (pH 7.0) with a 1-5 μL sample of the radiolabeled gallium complex. Following centrifugation at >1200 g for 5 minutes, the octanol and aqueous phases were sampled and counted in an automatic well counter.

[2] = rat
Description: The gallium-67 complexes are prepared by ligand exchange from gallium-67 chloride, employing the tris(acetylacetonato)gallium(III) complex as an intermediate. The Ga-67 acetylacetonate in ethanol is reacted with the chelating ligand or ligand precursor at elevated temperature to form rapidly the desired gallium radiopharmaceutical. […] The biodistribution of several radiopharmaceuticals was determined in rats following intravenous injection using techniques previously described (M. A. Green, Nuclear Medicine and Biology 14:59-61, 1987; E. John and M. A. Green, J. Medicinal Chemistry, 33:1764-1770, 1990).
Under ether anesthesia, 1 to 3 μCi (0.1-0.2 mL) of no-carrier-added Ga-67 compound was administered by bolus injection into the femoral vein of male Sprague-Dawley rats. The ether anesthetized rats were sacrificed by decapitation at given time intervals post-injection, organs of interest were removed, weighed, and the gallium-67 activity counted. The biodistribution was calculated as a percentage of the injected dose per gram of tissue and percentage of injected dose per organ for each sample.

## COc1cc([O-])c(C=NCCNCCNCCN=Cc2c([O-])cc(OC)cc2OC)c(OC)c1.[67Ga+3] [(4,6-MeO2 Sal)2 TETA, ^67 GaL^+ L = [bis(4,6-dimethoxysalicylaldimino)-N,N'-triethylene-tetraamine]]
[1]; 1-octanol / isotonic Tris buffer pH 7.0
  log P: 0.24
[2]; i.v., 1 min
  % Injected Dose per Gram Tissue, Blood: 1.90 ± 0.56 % Injected Dose per Gram Tissu
  % Injected Dose per Gram Tissue, Brain: 0.05 ± 0.01 % Injected Dose per Gram Tissu
  % Injected Dose per Gram Tissue, Heart: 0.76 ± 0.04 % Injected Dose per Gram Tissu
  % Injected Dose per Gram Tissue, Kidney (one): 4.36 ± 0.27 % Injected Dose per Gram Tissu
  % Injected Dose per Gram Tissue, Liver: 1.88 ± 0.15 % Injected Dose per Gram Tissu
  % Injected Dose per Gram Tissue, Lungs: 0.97 ± 0.03 % Injected Dose per Gram Tissu
  % Injected Dose per Gram Tissue, Spleen: 0.35 ± 0.02 % Injected Dose per Gram Tissu
  % Injected Dose per Organ, Blood: 19.26 ± 2.97 % Injected Dose per Organ
  % Injected Dose per Organ, Brain: 0.07 ± 0.01 % Injected Dose per Organ
  % Injected Dose per Organ, Heart: 0.55 ± 0.04 % Injected Dose per Organ
  % Injected Dose per Organ, Kidney (one): 3.83 ± 0.31 % Injected Dose per Organ
  % Injected Dose per Organ, Liver: 16.90 ± 1.70 % Injected Dose per Organ
  % Injected Dose per Organ, Lungs: 1.17 ± 0.23 % Injected Dose per Organ
  % Injected Dose per Organ, Spleen: 0.22 ± 0.01 % Injected Dose per Organ
[2]; i.v., 1 min, preliminary studies
  % injected dose in heart, 1 min: 0.55 ± 0.04 % injected dose
[2]; i.v., 15 min
  % Injected Dose per Gram Tissue, Blood: 0.71 ± 0.08 % Injected Dose per Gram Tissu
  % Injected Dose per Gram Tissue, Brain: 0.03 ± 0.01 % Injected Dose per Gram Tissu
  % Injected Dose per Gram Tissue, Heart: 0.53 ± 0.06 % Injected Dose per Gram Tissu
  % Injected Dose per Gram Tissue, Kidney (one): 2.35 ± 0.41 % Injected Dose per Gram Tissu
  % Injected Dose per Gram Tissue, Liver: 2.42 ± 0.25 % Injected Dose per Gram Tissu
  % Injected Dose per Gram Tissue, Lungs: 0.51 ± 0.05 % Injected Dose per Gram Tissu
  % Injected Dose per Gram Tissue, Spleen: 0.18 ± 0.02 % Injected Dose per Gram Tissu
  % Injected Dose per Organ, Blood: 9.32 ± 1.38 % Injected Dose per Organ
  % Injected Dose per Organ, Brain: 0.04 ± 0.01 % Injected Dose per Organ
  % Injected Dose per Organ, Heart: 0.36 ± 0.03 % Injected Dose per Organ
  % Injected Dose per Organ, Kidney (one): 1.89 ± 0.40 % Injected Dose per Organ
  % Injected Dose per Organ, Liver: 20.33 ± 1.11 % Injected Dose per Organ
  % Injected Dose per Organ, Lungs: 0.50 ± 0.05 % Injected Dose per Organ
  % Injected Dose per Organ, Spleen: 0.11 ± 0.02 % Injected Dose per Organ
[2]; i.v., 120 min
  % Injected Dose per Gram Tissue, Blood: 0.03 ± 0.01 % Injected Dose per Gram Tissu
  % Injected Dose per Gram Tissue, Brain: 0.01 ± 0.01 % Injected Dose per Gram Tissu
  % Injected Dose per Gram Tissue, Heart: 0.28 ± 0.05 % Injected Dose per Gram Tissu
  % Injected Dose per Gram Tissue, Kidney (one): 0.51 ± 0.10 % Injected Dose per Gram Tissu
  % Injected Dose per Gram Tissue, Liver: 0.83 ± 0.15 % Injected Dose per Gram Tissu
  % Injected Dose per Gram Tissue, Lungs: 0.08 ± 0.02 % Injected Dose per Gram Tissu
  % Injected Dose per Gram Tissue, Spleen: 0.06 ± 0.01 % Injected Dose per Gram Tissu
  % Injected Dose per Organ, Blood: 0.34 ± 0.02 % Injected Dose per Organ
  % Injected Dose per Organ, Brain: 0.01 ± 0.01 % Injected Dose per Organ
  % Injected Dose per Organ, Heart: 0.19 ± 0.03 % Injected Dose per Organ
  % Injected Dose per Organ, Kidney (one): 0.42 ± 0.04 % Injected Dose per Organ
  % Injected Dose per Organ, Liver: 6.90 ± 1.07 % Injected Dose per Organ
  % Injected Dose per Organ, Lungs: 0.10 ± 0.01 % Injected Dose per Organ
  % Injected Dose per Organ, Spleen: 0.04 ± 0.01 % Injected Dose per Organ
[2]; i.v., 2 h, preliminary studies
  % injected dose in heart, 2 h: 0.19 ± 0.03 % injected dose
[2]; ratio, i.v., 1 min
  Heart/Blood: 0.53 ± 0.04
  Heart/Liver: 0.41 ± 0.04
  Heart/Lungs: 0.79 ± 0.05
[2]; ratio, i.v., 15 min
  Heart/Blood: 0.74 ± 0.03
  Heart/Liver: 0.22 ± 0.01
  Heart/Lungs: 1.03 ± 0.20
[2]; ratio, i.v., 120 min
  Heart/Blood: 10.29 ± 2.64
  Heart/Liver: 0.34 ± 0.05
  Heart/Lungs: 3.49 ± 0.37

## COc1ccc(C=NCCCNCCNCCCN=Cc2ccc(OC)cc2[O-])c([O-])c1.[67Ga+3] [(4-MeOSal)2 BAPEN, ^67 GaL^+ L = [bis(4-methoxysalicylaldimino)-N,N'-bis(3-aminopropyl)-ethylenediamine]]
[1]; octanol/tris buffer, pH 7
  log P: 0.80
[2]; in vivo, iv
  % injected dose in heart, 1 min: 0.67 ± 0.08 % injected dose
  % injected dose in heart, 2 h: 0.65 ± 0.05 % injected dose
[2]; in vivo, iv, 1 min
  % Injected Dose per Gram Tissue, Blood: 0.32 ± 0.02
  % Injected Dose per Gram Tissue, Brain: 0.02 ± 0.01
  % Injected Dose per Gram Tissue, Heart: 0.96 ± 0.07
  % Injected Dose per Gram Tissue, Kidney (one): 11.08 ± 0.88
  % Injected Dose per Gram Tissue, Liver: 3.05 ± 0.27
  % Injected Dose per Gram Tissue, Lungs: 0.91 ± 0.09
  % Injected Dose per Gram Tissue, Spleen: 0.31 ± 0.05
  Heart/Blood: 2.99 ± 0.15
[2]; in vivo, iv, 2 h
  % Injected Dose per Gram Tissue, Blood: 0.03 ± 0.01
  % Injected Dose per Gram Tissue, Brain: 0.01 ± 0.003
  % Injected Dose per Gram Tissue, Heart: 0.92 ± 0.07
  % Injected Dose per Gram Tissue, Kidney (one): 2.19 ± 0.08
  % Injected Dose per Gram Tissue, Liver: 0.63 ± 0.20
  % Injected Dose per Gram Tissue, Lungs: 0.32 ± 0.02
  % Injected Dose per Gram Tissue, Spleen: 0.17 ± 0.03
  Heart/Blood: 30.58 ± 2.22
[2]; in vivo, iv, […]
  % Injected Dose per Gram Tissue, Blood: 0.06 ± 0.01
  % Injected Dose per Gram Tissue, Brain: 0.01 ± 0.001
  % Injected Dose per Gram Tissue, Heart: 1.01 ± 0.08
  % Injected Dose per Gram Tissue, Kidney (one): 4.47 ± 0.62
  % Injected Dose per Gram Tissue, Liver: 1.71 ± 0.40
  % Injected Dose per Gram Tissue, Lungs: 0.38 ± 0.05
  % Injected Dose per Gram Tissue, Spleen: 0.22 ± 0.02
  Heart/Blood: 17.62 ± 0.31
